Test results published in US20140343128A1, “Combination of a phosphoinositide 3-kinase inhibitor and a modulator of the Janus Kinase 2 - Signal Transducer and Activator of Transcription 5 pathway” (NOVARTIS FORSCHUNGSSTIFTUNG, ZWEIGNIEDERLASSUNG FRIEDRICH …, priority 2011, published 2014).

Tests used:
pJAK2, pSTAT5, pSTAT3 = assay: Time-course immunoblots/ELISA of JAK2/STAT crosstalk in breast cancer lines in vitro; assay type: cell-based, human, mouse; settings: for Start of JAK2 activation (pJAK2/pSTAT5 upregulation) after adding the compound: single PI3K or mTOR inhibition, in vitro time course; for pJAK2 and pSTAT5 (JAK2/STAT5 activation) in vitro: after 4 hours-8 hours of treatment
IL-8 secretion = IL-8 secretion ELISA in BEZ-treated breast cancer cell lines; assay type: cell-based, human; settings: 300 nM BEZ; for IL8 BEZ vs. DMSO: 20 h, relative to DMSO
pJAK2, pSTAT5 = assay: pJAK2/pSTAT5 in xenografts of treated mice; design: species or system SCID/beige mice; settings: 30 mg/kg once, after 8 hours of treatment
From the text: (§1) Animal experiments. SCID/beige, SCID/NOD and Balb/c mice (Jackson Labs) were maintained under specific pathogen-free conditions and were used in compliance with protocols approved by the Institutional Animal Care and Use Committees of the FMI, which conform to institutional and national regulatory standards on experimental animal usage. For orthotopical engraftment of breast cancer cell lines, 1×10^6 MDA-MB-468, 1×10^6 MDA-MB-231-LM2 and 0.5×10^6 […] or 4T-1-GFP cells were suspended in a 100-μl mixture of Basement Membrane Matrix Phenol Red-free (BD Biosciences) and PBS 1:1 and injected into the mammary gland 4 or between mammary glands 2 and 3. Primary patient breast tumors were cut into 1 mm×1 mm pieces and transplanted into mammary gland 4. Tumor-bearing mice were randomized based on tumor volume prior to the initiation of treatment, which was initiated when average tumor volume was at least 100 mm^3. […] Tumors were measured every 3 to 4 days with vernier calipers, and tumor volumes were calculated by the formula 0.5×(larger diameter)×(smaller diameter)^2. End point tumor sizes were analyzed for synergism using the formula AB/C<A/C×B/C, where C=tumor volume VHC, A=tumor volume compound 1, B=tumor volume compound 2, AB=tumor volume combination (Clarke, 1997).

pJAK2/JAK2 [1] = assay: pJAK2/JAK2 ELISA in BEZ-treated human breast cancer cell lines; assay type: cell-based; settings: 300 nM BEZ, 8 h, relative to DMSO
pSTAT5/STAT5 [2] = assay: pSTAT5/STAT5 immunoblotting with densitometry in BEZ-treated human breast cancer cell lines; assay type: cell-based; settings: 300 nM BEZ, 8 h, relative to DMSO
pAKT, pS6 = assay: Time-course immunoblots of target inhibition (pAKT, pS6) in breast cancer lines; assay type: cell-based, human, mouse; settings: MDA 468, MDA 231 LM2 and 4T-1 lines; single dose; up to 20 hours after treatment
pJAK2/JAK2 [3] = assay: pJAK2/JAK2 ELISA in BEZ-treated Balb/c mouse breast cancer lines; assay type: cell-based; settings: 300 nM BEZ, 8 h, relative to DMSO
[4] = system: JAK2/STAT5 and IL-8 secretion; assay: JAK2/STAT5 and IL-8 in primary human triple-negative breast tumor xenografts; assay type: in vivo, human tumors in immunodeficient mice; settings: 30 mg/kg BEZ, 3-4 days, xenografts in immunodeficient mice
From the text: as §1

IL-8 = IL-8 levels in tumors and plasma of treated mice; assay type: in vivo; settings: mice treated as in FIG. 5
From the text: as §1

pSTAT5/STAT5 [5] = assay: pSTAT5/STAT5 immunoblotting with densitometry in BEZ-treated Balb/c mouse breast cancer lines; assay type: cell-based; settings: 300 nM BEZ, 8 h, relative to DMSO
[6] = system: MDA231 LM2 and 4T-1 tumors; assay: Lung metastasis (metastatic index) in tumor-bearing mice; assay type: in vivo; settings: mice bearing MDA231 LM2 shJAK2 or shNT tumors treated with BSK
From the text: as §1, with “4.” for “4. Tumor-bearing mice were randomized based on tumor volume prior to the initiation of treatment, which was initiated when average tumor volume was at least 100 mm^3.”
Immunohistochemistry. […] Mouse lungs were fixed in Bouin's fixative and visible metastatic lung nodules were counted using a binocular.

Q: `CO[C@H]1C[C@@H]2CC[C@@H](C)[C@@](O)(O2)C(=O)C(=O)N2CCCC[C@H]2C(=O)O[C@H]([C@H](C)C[C@@H]2CC[C@@H](OCCO)[C@H](OC)C2)CC(=O)[C@H](C)/C=C(\C)[C@@H](O)[C@@H](OC)C(=O)[C@H](C)C[C@H](C)/C=C/C=C/C=C/1C` [RAD001, everolimus, reference compound] was tested. Which “Start of JAK2 activation (pJAK2/pSTAT5 upregulation) after adding the compound” value (pJAK2, pSTAT5, pSTAT3) did it give?
A: 4 hours

Q: Which “Start of JAK2 activation (pJAK2/pSTAT5 upregulation) after adding the compound” value (pJAK2, pSTAT5, pSTAT3) does the source give for `Nc1cc(C(F)(F)F)c(-c2cc(N3CCOCC3)nc(N3CCOCC3)n2)cn1` [COMPOUND C, 5-(2,6-di-morpholin-4-yl-pyrimidin-4-yl)-4-trifluoromethyl-pyridin-2-ylamine] here?
A: 8 hours

Q: Which results are given for `Cn1c(=O)n(-c2ccc(C(C)(C)C#N)cc2)c2c3cc(-c4cnc5ccccc5c4)ccc3ncc21` [COMPOUND A, 2-methyl-2-[4-(3-methyl-2-oxo-8-quinolin-3-yl-2,3-dihydro-imidazo[4,5-c]quinolin-1-yl)-phenyl]-propionitrile]?
A: IL-8 secretion in breast cancer (IL-8 secretion; breast cancer cells): induces; IL8 BEZ vs. DMSO (IL-8 secretion; BT474 cells): 0.99; IL8 BEZ vs. DMSO (IL-8 secretion; BT549 cells): 1.42; IL8 BEZ vs. DMSO (IL-8 secretion; HCC1937 cells): 1.06; IL8 BEZ vs. DMSO (IL-8 secretion; HCC1954 cells): 1.22; IL8 BEZ vs. DMSO (IL-8 secretion; Hs578t cells): 1.08; IL8 BEZ vs. DMSO (IL-8 secretion; MCF7 cells): 0.81; IL8 BEZ vs. DMSO (IL-8 secretion; MCF10A cells): 1.23; IL8 BEZ vs. DMSO (IL-8 secretion; MDA 231 LM2 cells): 2.04; IL8 BEZ vs. DMSO (IL-8 secretion; MDA 231 cells): 1.41; IL8 BEZ vs. DMSO (IL-8 secretion; MDA415 cells): 0.91; IL8 BEZ vs. DMSO (IL-8 secretion; MDA 436 cells): 1.41; IL8 BEZ vs. DMSO (IL-8 secretion; MDA 468 cells): 1.91; IL8 BEZ vs. DMSO (IL-8 secretion; SKBR3 cells): 1.01; IL8 BEZ vs. DMSO (IL-8 secretion; SUM159 cells): 1.24; IL8 BEZ vs. DMSO (IL-8 secretion; T47D cells): 0.71; IL8 BEZ vs. DMSO (IL-8 secretion; ZR75-1 cells): 1.55; pJAK2 and pSTAT5 (JAK2/STAT5 activation) in vivo (pJAK2, pSTAT5): activates; pJAK2 and pSTAT5 (JAK2/STAT5 activation) in vivo (pJAK2, pSTAT5; listed as BEZ): considerable upregulation; Pattern of JAK2/STAT5 activation (pJAK2, pSTAT5, pSTAT3; 300 nM BEZ): biphasic activation; Levels of pSTAT3 (pJAK2, pSTAT5, pSTAT3; BEZ treatment): largely unaffected; pJAK2 and pSTAT5 (JAK2/STAT5 activation) in vitro (pJAK2, pSTAT5, pSTAT3): activates; pJAK2 and pSTAT5 (JAK2/STAT5 activation) in vitro (pJAK2, pSTAT5, pSTAT3; listed as BEZ): considerable upregulation; pJAK2/JAK2 BEZ vs. DMSO (pJAK2/JAK2 [1]; BT474 cells): 0.95; pJAK2/JAK2 BEZ vs. DMSO (pJAK2/JAK2 [1]; BT549 cells): 1.21; pJAK2/JAK2 BEZ vs. DMSO (pJAK2/JAK2 [1]; HCC1937 cells): 1.62; pJAK2/JAK2 BEZ vs. DMSO (pJAK2/JAK2 [1]; HCC1954 cells): 1.32; pJAK2/JAK2 BEZ vs. DMSO (pJAK2/JAK2 [1]; Hs578t cells): 1.18; pJAK2/JAK2 BEZ vs. DMSO (pJAK2/JAK2 [1]; MCF7 cells): 0.74; pJAK2/JAK2 BEZ vs. DMSO (pJAK2/JAK2 [1]; MCF10A cells): 2.11; pJAK2/JAK2 BEZ vs. DMSO (pJAK2/JAK2 [1]; MDA 231 LM2 cells): 2.18; pJAK2/JAK2 BEZ vs. DMSO (pJAK2/JAK2 [1]; MDA 231 cells): 1.25; pJAK2/JAK2 BEZ vs. DMSO (pJAK2/JAK2 [1]; MDA415 cells): 0.88; pJAK2/JAK2 BEZ vs. DMSO (pJAK2/JAK2 [1]; MDA 436 cells): 1.53; pJAK2/JAK2 BEZ vs. DMSO (pJAK2/JAK2 [1]; MDA 468 cells): 2.32; pJAK2/JAK2 BEZ vs. DMSO (pJAK2/JAK2 [1]; SKBR3 cells): 0.65; pJAK2/JAK2 BEZ vs. DMSO (pJAK2/JAK2 [1]; SUM159 cells): 0.92; pJAK2/JAK2 BEZ vs. DMSO (pJAK2/JAK2 [1]; T47D cells): 1.05; pJAK2/JAK2 BEZ vs. DMSO (pJAK2/JAK2 [1]; ZR75-1 cells): 1.36; pSTAT5/STAT5 BEZ vs. DMSO (pSTAT5/STAT5 [2]; BT474 cells): 1.02; pSTAT5/STAT5 BEZ vs. DMSO (pSTAT5/STAT5 [2]; BT549 cells): 1.61; pSTAT5/STAT5 BEZ vs. DMSO (pSTAT5/STAT5 [2]; HCC1937 cells): 1.66; pSTAT5/STAT5 BEZ vs. DMSO (pSTAT5/STAT5 [2]; HCC1954 cells): 1.05; pSTAT5/STAT5 BEZ vs. DMSO (pSTAT5/STAT5 [2]; Hs578t cells): 0.96; pSTAT5/STAT5 BEZ vs. DMSO (pSTAT5/STAT5 [2]; MCF7 cells): 0.92; pSTAT5/STAT5 BEZ vs. DMSO (pSTAT5/STAT5 [2]; MCF10A cells): 3.21; pSTAT5/STAT5 BEZ vs. DMSO (pSTAT5/STAT5 [2]; MDA 231 LM2 cells): 2.32; pSTAT5/STAT5 BEZ vs. DMSO (pSTAT5/STAT5 [2]; MDA 231 cells): 1.58; pSTAT5/STAT5 BEZ vs. DMSO (pSTAT5/STAT5 [2]; MDA 436 cells): 1.77; pSTAT5/STAT5 BEZ vs. DMSO (pSTAT5/STAT5 [2]; MDA 468 cells): 2.11; pSTAT5/STAT5 BEZ vs. DMSO (pSTAT5/STAT5 [2]; SKBR3 cells): 0.82; pSTAT5/STAT5 BEZ vs. DMSO (pSTAT5/STAT5 [2]; SUM159 cells): 1.09; pSTAT5/STAT5 BEZ vs. DMSO (pSTAT5/STAT5 [2]; T47D cells): 0.62; pSTAT5/STAT5 BEZ vs. DMSO (pSTAT5/STAT5 [2]; ZR75-1 cells): 1.62; pAKT levels (pAKT, pS6): reduced; pS6 levels (pAKT, pS6): completely blocked; pJAK2/JAK2 BEZ vs. DMSO (pJAK2/JAK2 [3]; 4T-1 cells): 2.02; pJAK2/JAK2 BEZ vs. DMSO (pJAK2/JAK2 [3]; 168FARN cells): 1.74; JAK2/STAT5 and IL-8 secretion in human primary triple-negative breast tumors [4]: activates; IL-8 secretion in vivo (tumors and plasma) (IL-8): enhanced; pSTAT5/STAT5 BEZ vs. DMSO (pSTAT5/STAT5 [5]; 4T-1 cells): 2.65; pSTAT5/STAT5 BEZ vs. DMSO (pSTAT5/STAT5 [5]; 168FARN cells): 1.9

Q: For `Fc1cc(-c2cccc3ncc(-c4cnn(C5CCNCC5)c4)nc23)cc(F)c1CN1CCOCC1` [COMPOUND D, 8-(3,5-Difluoro-4-morpholin-4-ylmethyl-phenyl)-2-(1-piperidin-4-yl-1H-pyrazol-4-yl)-quinoxaline], which “Upregulation of pSTAT5 by BEZ” value (pJAK2, pSTAT5, pSTAT3; JAK2 inhibition added to BEZ treatment, MDA 468 cells, 8 h BEZ) is on record?
A: counteracted

Q: What about the “Metastasis (metastatic index), BSK alone” value [6] of the same compound?
A: reduces

Q: And the “IL-8 secretion in vivo (tumors and plasma)” value (IL-8)?
A: reduced
